Results published in ChEMBL document CHEMBL1201861, “Genomics of Drug Sensitity in Cancer screening data, Wellcome Trust Sanger Institute”.

What follows are compounds tested on CHP-212 (assay: cells). Conditions: Homo sapiens.
Assay type: functional, cell-based
Description: SANGER: Inhibition of human CHP-212 cell growth in a cell viability assay.
Work on `OC[C@H](Cc1ccccc1)Nc1nc(Oc2ccc3c(c2)CCC3)nc2c1ncn2Cc1ccc(-c2ccccc2)cc1` yielded an IC50 of over 10.2 µM.

The compounds below were run on COLO 205 (assay: cells). Conditions: Homo sapiens.
Assay type: functional, cell-based
Description: SANGER: Inhibition of human COLO-205 cell growth in a cell viability assay.
Compound `OC[C@H](Cc1ccccc1)Nc1nc(Oc2ccc3c(c2)CCC3)nc2c1ncn2Cc1ccc(-c2ccccc2)cc1` has an IC50 of 2.29 µM.

What follows are compounds tested on MRK-nu-1 (assay: cells). Conditions: Homo sapiens, MRK-nu-1.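 Note: cell viability assay measuring growth suppression of human MRK-nu-1 cells.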
Assay type: functional, cell-based, Homo sapiens
Description: SANGER: Inhibition of human MRK-nu-1 cell growth in a cell viability assay.
`OC[C@H](Cc1ccccc1)Nc1nc(Oc2ccc3c(c2)CCC3)nc2c1ncn2Cc1ccc(-c2ccccc2)cc1` showed an IC50 of over 10.2 µM.

What follows are compounds tested on NCI-H727 (assay: cells). Conditions: Homo sapiens.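 Note: growth inhibition of human NCI-H727 cells, read out with a cell viability assay.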
Assay type: functional, cell-based
Description: SANGER: Inhibition of human NCI-H727 cell growth in a cell viability assay.
With `OC[C@H](Cc1ccccc1)Nc1nc(Oc2ccc3c(c2)CCC3)nc2c1ncn2Cc1ccc(-c2ccccc2)cc1` the IC50 was over 10.2 µM.

What follows are compounds tested on BFTC-905 (assay: cells). Conditions: Homo sapiens.
Assay type: functional, cell-based
Description: SANGER: Inhibition of human BFTC-905 cell growth in a cell viability assay.
`OC[C@H](Cc1ccccc1)Nc1nc(Oc2ccc3c(c2)CCC3)nc2c1ncn2Cc1ccc(-c2ccccc2)cc1` showed an IC50 of 5.02 µM.

What follows are compounds tested on HMV-2 cell line (assay: cells). Conditions: Homo sapiens.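 Note: growth inhibition of HMV-II cells, read out with a cell viability assay.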
Assay type: functional, cell-based
Description: SANGER: Inhibition of human HMV-II cell growth in a cell viability assay.
Work on `OC[C@H](Cc1ccccc1)Nc1nc(Oc2ccc3c(c2)CCC3)nc2c1ncn2Cc1ccc(-c2ccccc2)cc1` yielded an IC50 of 6.34 µM.

What follows are compounds tested on NCI-H1693 (assay: cells). Conditions: Homo sapiens.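 Note: growth inhibition of the human cell line, read out with a cell viability assay.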
Assay type: functional, cell-based
Description: SANGER: Inhibition of human NCI-H1693 cell growth in a cell viability assay.
For `OC[C@H](Cc1ccccc1)Nc1nc(Oc2ccc3c(c2)CCC3)nc2c1ncn2Cc1ccc(-c2ccccc2)cc1`, the IC50 was 7.05 µM.

What follows are compounds tested on RERF-LC-MS (assay: cells). Conditions: Homo sapiens.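 Note: growth inhibition of human RERF-LC-MS cells, read out by a cell viability assay.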
Assay type: functional, cell-based
Description: SANGER: Inhibition of human RERF-LC-MS cell growth in a cell viability assay.
`OC[C@H](Cc1ccccc1)Nc1nc(Oc2ccc3c(c2)CCC3)nc2c1ncn2Cc1ccc(-c2ccccc2)cc1` was tested, and the IC50 was over 10.2 µM.

These compounds were tested on LC-1F (assay: cells). Conditions: Homo sapiens, LC-1F.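 Note: growth inhibition of human LC-1F cells, read out with a cell viability assay.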
Assay type: functional, cell-based, Homo sapiens
Description: SANGER: Inhibition of human LC-1F cell growth in a cell viability assay.
Compound `OC[C@H](Cc1ccccc1)Nc1nc(Oc2ccc3c(c2)CCC3)nc2c1ncn2Cc1ccc(-c2ccccc2)cc1` has an IC50 of over 10.2 µM.

The compounds below were run on TCC-SUP (assay: cells). Conditions: Homo sapiens.
Assay type: functional, cell-based
Description: SANGER: Inhibition of human TCCSUP cell growth in a cell viability assay.
`OC[C@H](Cc1ccccc1)Nc1nc(Oc2ccc3c(c2)CCC3)nc2c1ncn2Cc1ccc(-c2ccccc2)cc1` showed an IC50 of over 10.2 µM.

These compounds were tested on CMK (assay: cells). Conditions: Homo sapiens, CMK.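 Note: growth inhibition of CMK cells, read out as cell viability.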
Assay type: functional, cell-based, Homo sapiens
Description: SANGER: Inhibition of human CMK cell growth in a cell viability assay.
For `OC[C@H](Cc1ccccc1)Nc1nc(Oc2ccc3c(c2)CCC3)nc2c1ncn2Cc1ccc(-c2ccccc2)cc1`, the IC50 was over 10.2 µM.

What follows are compounds tested on Detroit 562 (assay: cells). Conditions: Homo sapiens.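 Note: growth inhibition of human Detroit 562 cells, read out by a cell viability assay.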
Assay type: functional, cell-based
Description: SANGER: Inhibition of human Detroit562 cell growth in a cell viability assay.
`OC[C@H](Cc1ccccc1)Nc1nc(Oc2ccc3c(c2)CCC3)nc2c1ncn2Cc1ccc(-c2ccccc2)cc1` showed an IC50 of over 10.2 µM.

The compounds below were run on BEN (assay: cells). Conditions: Homo sapiens.
Assay type: functional, cell-based
Description: SANGER: Inhibition of human BEN cell growth in a cell viability assay.
With `OC[C@H](Cc1ccccc1)Nc1nc(Oc2ccc3c(c2)CCC3)nc2c1ncn2Cc1ccc(-c2ccccc2)cc1` the IC50 was over 10.2 µM.

Each compound was assayed on D-542MG (assay: cells). Conditions: Homo sapiens.
Assay type: functional, cell-based
Description: SANGER: Inhibition of human D-542MG cell growth in a cell viability assay.
`OC[C@H](Cc1ccccc1)Nc1nc(Oc2ccc3c(c2)CCC3)nc2c1ncn2Cc1ccc(-c2ccccc2)cc1` was tested, and the IC50 was over 10.2 µM.

What follows are compounds tested on SW837 (assay: cells). Conditions: Homo sapiens.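 Note: growth inhibition of SW837 cells, determined with a cell viability assay.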
Assay type: functional, cell-based
Description: SANGER: Inhibition of human SW837 cell growth in a cell viability assay.
With `OC[C@H](Cc1ccccc1)Nc1nc(Oc2ccc3c(c2)CCC3)nc2c1ncn2Cc1ccc(-c2ccccc2)cc1` the IC50 was over 10.2 µM.

Each compound was assayed on NB12 (assay: cells). Conditions: Homo sapiens.
Assay type: functional, cell-based
Description: SANGER: Inhibition of human NB12 cell growth in a cell viability assay.
Work on `OC[C@H](Cc1ccccc1)Nc1nc(Oc2ccc3c(c2)CCC3)nc2c1ncn2Cc1ccc(-c2ccccc2)cc1` yielded an IC50 of over 10.2 µM.

What follows are compounds tested on HCC1143 (assay: cells). Conditions: Homo sapiens.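 Note: growth inhibition of human HCC1143 cells, read out with a cell viability assay.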
Assay type: functional, cell-based
Description: SANGER: Inhibition of human HCC1143 cell growth in a cell viability assay.
Compound `OC[C@H](Cc1ccccc1)Nc1nc(Oc2ccc3c(c2)CCC3)nc2c1ncn2Cc1ccc(-c2ccccc2)cc1` has an IC50 of over 10.2 µM.

These compounds were tested on EW-24 (assay: cells). Conditions: Homo sapiens, EW-24.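 Note: human EW-24 cancer cell line, growth inhibition read out via a cell viability assay.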
Assay type: functional, cell-based, Homo sapiens
Description: SANGER: Inhibition of human EW-24 cell growth in a cell viability assay.
`OC[C@H](Cc1ccccc1)Nc1nc(Oc2ccc3c(c2)CCC3)nc2c1ncn2Cc1ccc(-c2ccccc2)cc1` gave an IC50 of over 10.2 µM.

These compounds were tested on SNG-M (assay: cells). Conditions: Homo sapiens.
Assay type: functional, cell-based
Description: SANGER: Inhibition of human SNG-M cell growth in a cell viability assay.
`OC[C@H](Cc1ccccc1)Nc1nc(Oc2ccc3c(c2)CCC3)nc2c1ncn2Cc1ccc(-c2ccccc2)cc1` was tested, and the IC50 was 5.93 µM.

These compounds were tested on NCI-H1792 (assay: cells). Conditions: Homo sapiens.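 Note: growth inhibition of human NCI-H1792 cells, read out as cell viability.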
Assay type: functional, cell-based
Description: SANGER: Inhibition of human NCI-H1792 cell growth in a cell viability assay.
For `OC[C@H](Cc1ccccc1)Nc1nc(Oc2ccc3c(c2)CCC3)nc2c1ncn2Cc1ccc(-c2ccccc2)cc1`, the IC50 was over 10.2 µM.

Each compound was assayed on GDM-1 (assay: cells). Conditions: Homo sapiens, GDM-1; read-out: IC50.
Assay type: functional, cell-based, Homo sapiens
Description: SANGER: Inhibition of human GDM-1 cell growth in a cell viability assay.
In the case of `OC[C@H](Cc1ccccc1)Nc1nc(Oc2ccc3c(c2)CCC3)nc2c1ncn2Cc1ccc(-c2ccccc2)cc1`, the IC50 is reported as 3.33 µM.

The compounds below were run on SW-620 (assay: cells). Conditions: Homo sapiens.
Assay type: functional, cell-based
Description: SANGER: Inhibition of human SW620 cell growth in a cell viability assay.
In the case of `OC[C@H](Cc1ccccc1)Nc1nc(Oc2ccc3c(c2)CCC3)nc2c1ncn2Cc1ccc(-c2ccccc2)cc1`, the IC50 is reported as 3.16 µM.

Each compound was assayed on COLO-741 (assay: cells). Conditions: Homo sapiens.
Assay type: functional, cell-based
Description: SANGER: Inhibition of human COLO-741 cell growth in a cell viability assay.
In the case of `OC[C@H](Cc1ccccc1)Nc1nc(Oc2ccc3c(c2)CCC3)nc2c1ncn2Cc1ccc(-c2ccccc2)cc1`, the IC50 is reported as over 10.2 µM.

What follows are compounds tested on SNU-475 (assay: cells). Conditions: Homo sapiens.
Assay type: functional, cell-based
Description: SANGER: Inhibition of human SNU-475 cell growth in a cell viability assay.
`OC[C@H](Cc1ccccc1)Nc1nc(Oc2ccc3c(c2)CCC3)nc2c1ncn2Cc1ccc(-c2ccccc2)cc1` gave an IC50 of over 10.2 µM.

The compounds below were run on COR-L23 (assay: cells). Conditions: Homo sapiens.
Assay type: functional, cell-based
Description: SANGER: Inhibition of human COR-L23 cell growth in a cell viability assay.
`OC[C@H](Cc1ccccc1)Nc1nc(Oc2ccc3c(c2)CCC3)nc2c1ncn2Cc1ccc(-c2ccccc2)cc1` showed an IC50 of 6.89 µM.

The compounds below were run on LoVo (assay: cells). Conditions: Homo sapiens.
Assay type: functional, cell-based
Description: SANGER: Inhibition of human LoVo cell growth in a cell viability assay.
Work on `OC[C@H](Cc1ccccc1)Nc1nc(Oc2ccc3c(c2)CCC3)nc2c1ncn2Cc1ccc(-c2ccccc2)cc1` yielded an IC50 of 4.56 µM.

What follows are compounds tested on UACC-893 (assay: cells). Conditions: Homo sapiens.
Assay type: functional, cell-based
Description: SANGER: Inhibition of human UACC-893 cell growth in a cell viability assay.
`OC[C@H](Cc1ccccc1)Nc1nc(Oc2ccc3c(c2)CCC3)nc2c1ncn2Cc1ccc(-c2ccccc2)cc1` gave an IC50 of over 10.2 µM.

What follows are compounds tested on PC-14 (assay: cells). Conditions: Homo sapiens.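 Note: cell viability assay measuring inhibition of PC-14 cell growth.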
Assay type: functional, cell-based
Description: SANGER: Inhibition of human PC-14 cell growth in a cell viability assay.
Compound `OC[C@H](Cc1ccccc1)Nc1nc(Oc2ccc3c(c2)CCC3)nc2c1ncn2Cc1ccc(-c2ccccc2)cc1` has an IC50 of over 10.2 µM.

These compounds were tested on SK-MEL3 (assay: cells). Conditions: Homo sapiens.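 Note: growth inhibition of human SK-MEL-3 cells, read out with a cell viability assay.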
Assay type: functional, cell-based, SK-MEL-3
Description: SANGER: Inhibition of human SK-MEL-3 cell growth in a cell viability assay.
With `OC[C@H](Cc1ccccc1)Nc1nc(Oc2ccc3c(c2)CCC3)nc2c1ncn2Cc1ccc(-c2ccccc2)cc1` the IC50 was over 10.2 µM.

Each compound was assayed on OVCAR-3 (assay: cells). Conditions: Homo sapiens.
Assay type: functional, cell-based
Description: SANGER: Inhibition of human OVCAR-3 cell growth in a cell viability assay.
In the case of `OC[C@H](Cc1ccccc1)Nc1nc(Oc2ccc3c(c2)CCC3)nc2c1ncn2Cc1ccc(-c2ccccc2)cc1`, the IC50 is reported as over 10.2 µM.

The compounds below were run on CCF-STTG1 (assay: cells). Conditions: Homo sapiens.
Assay type: functional, cell-based
Description: SANGER: Inhibition of human CCF-STTG1 cell growth in a cell viability assay.
For `OC[C@H](Cc1ccccc1)Nc1nc(Oc2ccc3c(c2)CCC3)nc2c1ncn2Cc1ccc(-c2ccccc2)cc1`, the IC50 was over 10.2 µM.

Each compound was assayed on MCF7 (assay: cells). Conditions: Homo sapiens.
Assay type: functional, cell-based
Description: SANGER: Inhibition of human MCF7 cell growth in a cell viability assay.
With `OC[C@H](Cc1ccccc1)Nc1nc(Oc2ccc3c(c2)CCC3)nc2c1ncn2Cc1ccc(-c2ccccc2)cc1` the IC50 was 2.26 µM.

Each compound was assayed on OAW-42 (assay: cells). Conditions: Homo sapiens.
Assay type: functional, cell-based
Description: SANGER: Inhibition of human OAW-42 cell growth in a cell viability assay.
Work on `OC[C@H](Cc1ccccc1)Nc1nc(Oc2ccc3c(c2)CCC3)nc2c1ncn2Cc1ccc(-c2ccccc2)cc1` yielded an IC50 of over 10.2 µM.

The compounds below were run on D-392MG (assay: cells). Conditions: Homo sapiens.
Assay type: functional, cell-based
`OC[C@H](Cc1ccccc1)Nc1nc(Oc2ccc3c(c2)CCC3)nc2c1ncn2Cc1ccc(-c2ccccc2)cc1` showed an IC50 of over 10.2 µM.

These compounds were tested on SK-CO-1 (assay: cells). Conditions: Homo sapiens.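 Note: growth inhibition of SK-CO-1 cells, determined by a viability readout.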
Assay type: functional, cell-based
Description: SANGER: Inhibition of human SK-CO-1 cell growth in a cell viability assay.
With `OC[C@H](Cc1ccccc1)Nc1nc(Oc2ccc3c(c2)CCC3)nc2c1ncn2Cc1ccc(-c2ccccc2)cc1` the IC50 was over 10.2 µM.

Each compound was assayed on NCI-H1963 (assay: cells). Conditions: Homo sapiens, NCI-H1963.
Assay type: functional, cell-based, Homo sapiens
Description: SANGER: Inhibition of human NCI-H1963 cell growth in a cell viability assay.
Work on `OC[C@H](Cc1ccccc1)Nc1nc(Oc2ccc3c(c2)CCC3)nc2c1ncn2Cc1ccc(-c2ccccc2)cc1` yielded an IC50 of over 10.2 µM.

These compounds were tested on ECC4 (assay: cells). Conditions: Homo sapiens, ECC4.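 Note: growth inhibition of ECC4 cells, read out with a cell viability assay.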
Assay type: functional, cell-based, Homo sapiens
Description: SANGER: Inhibition of human ECC4 cell growth in a cell viability assay.
`OC[C@H](Cc1ccccc1)Nc1nc(Oc2ccc3c(c2)CCC3)nc2c1ncn2Cc1ccc(-c2ccccc2)cc1` showed an IC50 of over 10.2 µM.

Each compound was assayed on DMS-53 (assay: cells). Conditions: Homo sapiens.
Assay type: functional, cell-based
Description: SANGER: Inhibition of human DMS-53 cell growth in a cell viability assay.
With `OC[C@H](Cc1ccccc1)Nc1nc(Oc2ccc3c(c2)CCC3)nc2c1ncn2Cc1ccc(-c2ccccc2)cc1` the IC50 was over 10.2 µM.

What follows are compounds tested on EFO-21 (assay: cells). Conditions: Homo sapiens.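 Note: growth inhibition of EFO-21 cells measured with a viability assay.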
Assay type: functional, cell-based
Description: SANGER: Inhibition of human EFO-21 cell growth in a cell viability assay.
`OC[C@H](Cc1ccccc1)Nc1nc(Oc2ccc3c(c2)CCC3)nc2c1ncn2Cc1ccc(-c2ccccc2)cc1` gave an IC50 of over 10.2 µM.

These compounds were tested on AU565 (assay: cells). Conditions: Homo sapiens.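 Note: cell viability assay measuring growth inhibition of human AU565 cells.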
Assay type: functional, cell-based
Description: SANGER: Inhibition of human AU565 cell growth in a cell viability assay.
`OC[C@H](Cc1ccccc1)Nc1nc(Oc2ccc3c(c2)CCC3)nc2c1ncn2Cc1ccc(-c2ccccc2)cc1` showed an IC50 of 6.47 µM.

Each compound was assayed on UACC-812 (assay: cells). Conditions: Homo sapiens.
Assay type: functional, cell-based
Description: SANGER: Inhibition of human UACC-812 cell growth in a cell viability assay.
`OC[C@H](Cc1ccccc1)Nc1nc(Oc2ccc3c(c2)CCC3)nc2c1ncn2Cc1ccc(-c2ccccc2)cc1` gave an IC50 of over 10.2 µM.

Each compound was assayed on PLC-PRF-5 (assay: cells). Conditions: Homo sapiens.
Assay type: functional, cell-based
Description: SANGER: Inhibition of human PLC-PRF-5 cell growth in a cell viability assay.
Compound `OC[C@H](Cc1ccccc1)Nc1nc(Oc2ccc3c(c2)CCC3)nc2c1ncn2Cc1ccc(-c2ccccc2)cc1` has an IC50 of over 10.2 µM.

The compounds below were run on SNU-387 (assay: cells). Conditions: Homo sapiens.
Assay type: functional, cell-based
Description: SANGER: Inhibition of human SNU-387 cell growth in a cell viability assay.
`OC[C@H](Cc1ccccc1)Nc1nc(Oc2ccc3c(c2)CCC3)nc2c1ncn2Cc1ccc(-c2ccccc2)cc1` gave an IC50 of over 10.2 µM.

These compounds were tested on C-4-II (assay: SANGER: Inhibition of human C-4-II cell growth in a cell viability assay.). Conditions: not given.
Assay type: functional, cell-based
For `OC[C@H](Cc1ccccc1)Nc1nc(Oc2ccc3c(c2)CCC3)nc2c1ncn2Cc1ccc(-c2ccccc2)cc1`, the IC50 was over 10.2 µM.

These compounds were tested on SCC-9 (assay: cells). Conditions: Homo sapiens.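 Note: Read-out is a cell viability assay, with values giving inhibition of cell growth.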
Assay type: functional, cell-based
Description: SANGER: Inhibition of human SCC-9 cell growth in a cell viability assay.
In the case of `OC[C@H](Cc1ccccc1)Nc1nc(Oc2ccc3c(c2)CCC3)nc2c1ncn2Cc1ccc(-c2ccccc2)cc1`, the IC50 is reported as over 10.2 µM.

The compounds below were run on LOUCY (assay: cells). Conditions: Homo sapiens, LOUCY.
Assay type: functional, cell-based, Homo sapiens
Description: SANGER: Inhibition of human LOUCY cell growth in a cell viability assay.
`OC[C@H](Cc1ccccc1)Nc1nc(Oc2ccc3c(c2)CCC3)nc2c1ncn2Cc1ccc(-c2ccccc2)cc1` was tested, and the IC50 was over 10.2 µM.

Each compound was assayed on LCLC-97TM1 (assay: cells). Conditions: Homo sapiens.
Assay type: functional, cell-based
Description: SANGER: Inhibition of human LCLC-97TM1 cell growth in a cell viability assay.
In the case of `OC[C@H](Cc1ccccc1)Nc1nc(Oc2ccc3c(c2)CCC3)nc2c1ncn2Cc1ccc(-c2ccccc2)cc1`, the IC50 is reported as 6.43 µM.

These compounds were tested on NCI-H358 (assay: cells). Conditions: Homo sapiens.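 Note: growth inhibition of NCI-H358 human cells, read out with a cell viability assay.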
Assay type: functional, cell-based
Description: SANGER: Inhibition of human NCI-H358 cell growth in a cell viability assay.
`OC[C@H](Cc1ccccc1)Nc1nc(Oc2ccc3c(c2)CCC3)nc2c1ncn2Cc1ccc(-c2ccccc2)cc1` was tested, and the IC50 was over 10.2 µM.

What follows are compounds tested on RL (assay: cells). Conditions: Homo sapiens, RL.
Assay type: functional, cell-based, Homo sapiens
Description: SANGER: Inhibition of human RL cell growth in a cell viability assay.
`OC[C@H](Cc1ccccc1)Nc1nc(Oc2ccc3c(c2)CCC3)nc2c1ncn2Cc1ccc(-c2ccccc2)cc1` showed an IC50 of over 10.2 µM.
